Reference: article PMC8120209, “Longitudinal evaluation of a novel BChE PET tracer as an early in vivo biomarker in the brain of a mouse model for Alzheimer disease” (Theranostics, 2021)

What was measured:
N muscle-type (h) = target: T1, N muscle-type (h) (Homo sapiens, UniProt P02708); experiment: biochemical; set-up: Eurofins SafetyScreen44 radioligand displacement, inhibition of control specific binding; settings: read-out: % Inhibition of Control Specific Binding, Mean
T1 construct: gene CHRNA1

D5(h) = target: T2, D5(h) (Homo sapiens, UniProt P21918); experiment: biochemical; set-up: Eurofins SafetyScreen44 radioligand displacement, inhibition of control specific binding; settings: read-out: % Inhibition of Control Specific Binding, Mean
T2 construct: gene DRD5

[1] = target: T3, Potassium Channel hERG (human) (Homo sapiens, UniProt Q12809); experiment: in vitro; set-up: Eurofins SafetyScreen44 radioligand displacement, inhibition of control specific binding; settings: read-out: % Inhibition of Control Specific Binding, Mean
T3 construct: gene KCNH2

D2L(h) = target: T4, D2L(h) (Homo sapiens, UniProt P14416); experiment: biochemical; set-up: Eurofins SafetyScreen44 radioligand displacement, inhibition of control specific binding; settings: read-out: % Inhibition of Control Specific Binding, Mean
T4 construct: gene DRD2; long isoform D2L

M3(h) = target: T5, M3(h) (Homo sapiens, UniProt P20309); experiment: biochemical; set-up: Eurofins SafetyScreen44 radioligand displacement, inhibition of control specific binding; settings: read-out: % Inhibition of Control Specific Binding, Mean
T5 construct: gene CHRM3
T5 sequence (P20309 whole entry): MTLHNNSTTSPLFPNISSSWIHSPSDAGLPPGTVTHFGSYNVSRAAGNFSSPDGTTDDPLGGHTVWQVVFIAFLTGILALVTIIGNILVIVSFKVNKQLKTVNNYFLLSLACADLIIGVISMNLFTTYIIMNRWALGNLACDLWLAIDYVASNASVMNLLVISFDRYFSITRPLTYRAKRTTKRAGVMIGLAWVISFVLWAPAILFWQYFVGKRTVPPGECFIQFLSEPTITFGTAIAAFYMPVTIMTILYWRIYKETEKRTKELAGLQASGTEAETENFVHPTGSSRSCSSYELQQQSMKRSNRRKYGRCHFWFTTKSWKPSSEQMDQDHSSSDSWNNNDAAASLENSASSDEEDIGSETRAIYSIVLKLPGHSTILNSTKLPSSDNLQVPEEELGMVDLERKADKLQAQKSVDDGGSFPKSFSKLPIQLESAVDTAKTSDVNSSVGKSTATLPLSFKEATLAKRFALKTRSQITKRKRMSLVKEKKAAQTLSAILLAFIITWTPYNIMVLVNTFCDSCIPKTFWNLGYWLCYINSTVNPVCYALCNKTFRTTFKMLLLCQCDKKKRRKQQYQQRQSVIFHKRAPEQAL

PDE4D2 (h) = target: T6, PDE4D2 (h) (Homo sapiens, UniProt Q08499); experiment: biochemical; set-up: Eurofins SafetyScreen44 enzyme assays, inhibition of control specific activity; settings: read-out: % Inhibition of Control Values, Mean
T6 construct: gene PDE4D; isoform PDE4D2
T6 sequence (Q08499 whole entry, canonical isoform): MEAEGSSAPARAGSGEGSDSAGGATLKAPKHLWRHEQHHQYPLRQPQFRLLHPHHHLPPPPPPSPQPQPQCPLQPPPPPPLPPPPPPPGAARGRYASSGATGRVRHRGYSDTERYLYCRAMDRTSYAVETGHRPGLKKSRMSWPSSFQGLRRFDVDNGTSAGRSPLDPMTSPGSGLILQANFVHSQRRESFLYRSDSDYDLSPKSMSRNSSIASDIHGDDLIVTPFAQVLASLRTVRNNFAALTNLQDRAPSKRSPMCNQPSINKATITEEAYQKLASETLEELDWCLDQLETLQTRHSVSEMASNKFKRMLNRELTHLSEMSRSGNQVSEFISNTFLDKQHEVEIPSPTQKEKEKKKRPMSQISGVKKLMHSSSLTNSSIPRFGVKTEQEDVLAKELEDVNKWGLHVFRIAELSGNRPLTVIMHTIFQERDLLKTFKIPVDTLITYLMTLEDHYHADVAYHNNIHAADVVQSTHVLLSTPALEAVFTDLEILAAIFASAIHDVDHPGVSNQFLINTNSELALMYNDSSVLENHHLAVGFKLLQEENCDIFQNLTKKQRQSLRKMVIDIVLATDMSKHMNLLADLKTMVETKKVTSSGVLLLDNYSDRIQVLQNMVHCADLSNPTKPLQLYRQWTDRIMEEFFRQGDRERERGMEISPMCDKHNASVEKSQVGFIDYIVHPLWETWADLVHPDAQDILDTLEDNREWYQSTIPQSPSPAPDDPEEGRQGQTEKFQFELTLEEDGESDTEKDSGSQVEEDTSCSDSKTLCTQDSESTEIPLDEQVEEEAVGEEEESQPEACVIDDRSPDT

COX2(h) = target: T7, COX2(h) (Homo sapiens, UniProt P35354); experiment: biochemical; set-up: Eurofins SafetyScreen44 enzyme assays, inhibition of control specific activity; settings: read-out: % Inhibition of Control Values, Mean
T7 construct: gene PTGS2
T7 sequence (P35354 whole entry): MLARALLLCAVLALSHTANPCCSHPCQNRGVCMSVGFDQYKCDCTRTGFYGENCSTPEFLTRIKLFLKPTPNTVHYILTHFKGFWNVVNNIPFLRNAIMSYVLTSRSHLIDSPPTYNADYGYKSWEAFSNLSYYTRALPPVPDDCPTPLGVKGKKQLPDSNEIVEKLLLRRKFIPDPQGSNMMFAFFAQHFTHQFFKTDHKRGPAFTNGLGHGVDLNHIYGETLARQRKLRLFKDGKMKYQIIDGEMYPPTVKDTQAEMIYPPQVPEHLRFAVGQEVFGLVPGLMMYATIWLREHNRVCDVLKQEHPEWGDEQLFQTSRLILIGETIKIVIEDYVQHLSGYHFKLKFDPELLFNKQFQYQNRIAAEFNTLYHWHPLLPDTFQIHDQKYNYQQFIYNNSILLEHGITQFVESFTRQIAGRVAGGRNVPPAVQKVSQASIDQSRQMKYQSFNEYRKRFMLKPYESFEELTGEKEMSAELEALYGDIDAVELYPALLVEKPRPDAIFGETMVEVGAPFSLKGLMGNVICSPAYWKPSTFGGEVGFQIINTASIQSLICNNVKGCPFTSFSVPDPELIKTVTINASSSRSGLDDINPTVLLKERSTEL

N neuronal α4β2 (h) = target: T8, N neuronal α4β2 (h) (Homo sapiens, UniProt P17787+P43681); experiment: biochemical; set-up: Eurofins SafetyScreen44 radioligand displacement, inhibition of control specific binding; settings: read-out: % Inhibition of Control Specific Binding, Mean
T8 construct: gene CHRNB2

A2A(h) = target: T9, A2A(h) (Homo sapiens, UniProt P29274); experiment: biochemical; set-up: Eurofins SafetyScreen44 radioligand displacement, inhibition of control specific binding; settings: read-out: % Inhibition of Control Specific Binding, Mean
T9 construct: gene ADORA2A

CB2(h) = target: T10, CB2(h) (Homo sapiens, UniProt P34972); experiment: biochemical; set-up: Eurofins SafetyScreen44 radioligand displacement, inhibition of control specific binding; settings: read-out: % Inhibition of Control Specific Binding, Mean
T10 construct: gene CNR2

acetylcholinesterase (h) = target: T11, acetylcholinesterase (h) (Homo sapiens, UniProt P22303); experiment: biochemical; set-up: Eurofins SafetyScreen44 enzyme assays, inhibition of control specific activity; settings: read-out: % Inhibition of Control Values, Mean
T11 construct: gene ACHE
T11 sequence (P22303 whole entry): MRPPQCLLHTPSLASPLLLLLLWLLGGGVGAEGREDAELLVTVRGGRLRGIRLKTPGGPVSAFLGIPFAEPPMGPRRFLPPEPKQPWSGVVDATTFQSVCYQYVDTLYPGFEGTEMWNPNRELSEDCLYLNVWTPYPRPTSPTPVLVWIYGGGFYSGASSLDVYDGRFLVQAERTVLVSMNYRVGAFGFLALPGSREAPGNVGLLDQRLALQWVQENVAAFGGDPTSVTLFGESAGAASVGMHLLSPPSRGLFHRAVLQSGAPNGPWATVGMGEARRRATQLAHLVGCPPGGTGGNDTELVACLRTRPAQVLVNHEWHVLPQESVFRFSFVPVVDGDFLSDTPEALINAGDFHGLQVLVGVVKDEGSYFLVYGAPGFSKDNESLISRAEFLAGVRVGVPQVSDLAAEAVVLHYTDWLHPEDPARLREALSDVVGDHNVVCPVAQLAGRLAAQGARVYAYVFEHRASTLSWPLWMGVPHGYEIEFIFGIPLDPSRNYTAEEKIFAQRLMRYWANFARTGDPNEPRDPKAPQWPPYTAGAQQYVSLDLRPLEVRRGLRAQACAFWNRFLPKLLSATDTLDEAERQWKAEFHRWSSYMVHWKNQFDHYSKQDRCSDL

5-HT2A(h) = target: T12, 5-HT2A(h) (Homo sapiens, UniProt P28223); experiment: biochemical; set-up: Eurofins SafetyScreen44 radioligand displacement, inhibition of control specific binding; settings: read-out: % Inhibition of Control Specific Binding, Mean
T12 construct: gene HTR2A
T12 sequence (P28223 whole entry): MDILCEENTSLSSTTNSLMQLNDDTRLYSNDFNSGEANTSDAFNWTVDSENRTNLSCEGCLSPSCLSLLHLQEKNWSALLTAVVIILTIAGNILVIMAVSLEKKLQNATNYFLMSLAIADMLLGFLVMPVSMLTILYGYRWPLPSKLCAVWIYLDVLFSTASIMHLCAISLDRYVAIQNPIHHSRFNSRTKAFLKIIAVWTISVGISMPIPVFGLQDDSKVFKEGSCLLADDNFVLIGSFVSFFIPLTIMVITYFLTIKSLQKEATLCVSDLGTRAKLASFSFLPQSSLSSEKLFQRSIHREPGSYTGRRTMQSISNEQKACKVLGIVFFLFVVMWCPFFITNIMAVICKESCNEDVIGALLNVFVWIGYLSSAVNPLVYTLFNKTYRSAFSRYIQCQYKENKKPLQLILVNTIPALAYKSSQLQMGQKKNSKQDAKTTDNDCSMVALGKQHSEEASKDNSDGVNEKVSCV

GR (h) = target: T13, GR (h) (Homo sapiens, UniProt P04150); experiment: biochemical; set-up: Eurofins SafetyScreen44 radioligand displacement, inhibition of control specific binding; settings: read-out: % Inhibition of Control Specific Binding, Mean
T13 construct: gene NR3C1

M2 (h) = target: T14, M2 (h) (Homo sapiens, UniProt P08172); experiment: biochemical; set-up: Eurofins SafetyScreen44 radioligand displacement, inhibition of control specific binding; settings: read-out: % Inhibition of Control Specific Binding, Mean
T14 construct: gene CHRM2

adrenergic receptor α2A = target: T15, adrenergic receptor α2A (Homo sapiens, UniProt P08913); experiment: SafetyScreen44 panel (Eurofins), single concentration […]; settings: read-out: % inhibition at 10 μM
T15 construct: gene ADRA2A

μ (MOP) (h) = target: T16, μ (MOP) (h) (Homo sapiens, UniProt P35372); experiment: biochemical; set-up: Eurofins SafetyScreen44 radioligand displacement, inhibition of control specific binding; settings: read-out: % Inhibition of Control Specific Binding, Mean
T16 construct: gene OPRM1
T16 sequence (P35372 whole entry): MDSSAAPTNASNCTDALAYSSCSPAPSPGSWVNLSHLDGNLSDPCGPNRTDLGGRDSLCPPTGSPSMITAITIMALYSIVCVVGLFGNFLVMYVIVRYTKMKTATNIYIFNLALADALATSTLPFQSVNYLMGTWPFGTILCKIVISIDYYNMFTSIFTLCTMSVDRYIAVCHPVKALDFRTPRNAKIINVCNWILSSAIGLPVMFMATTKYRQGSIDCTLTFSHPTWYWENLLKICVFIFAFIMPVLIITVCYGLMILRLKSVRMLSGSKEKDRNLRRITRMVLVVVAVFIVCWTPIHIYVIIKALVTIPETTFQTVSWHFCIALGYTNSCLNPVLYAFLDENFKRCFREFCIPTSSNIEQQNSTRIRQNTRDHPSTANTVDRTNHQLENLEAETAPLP

5-HT1A(h) = target: T17, 5-HT1A(h) (Homo sapiens, UniProt P08908); experiment: biochemical; set-up: Eurofins SafetyScreen44 radioligand displacement, inhibition of control specific binding; settings: read-out: % Inhibition of Control Specific Binding, Mean
T17 construct: gene HTR1A

5-HT6 (h) = target: T18, 5-HT6 (h) (Homo sapiens, UniProt P50406); experiment: biochemical; set-up: Eurofins SafetyScreen44 radioligand displacement, inhibition of control specific binding; settings: read-out: % Inhibition of Control Specific Binding, Mean
T18 construct: gene HTR6
T18 sequence (P50406 whole entry): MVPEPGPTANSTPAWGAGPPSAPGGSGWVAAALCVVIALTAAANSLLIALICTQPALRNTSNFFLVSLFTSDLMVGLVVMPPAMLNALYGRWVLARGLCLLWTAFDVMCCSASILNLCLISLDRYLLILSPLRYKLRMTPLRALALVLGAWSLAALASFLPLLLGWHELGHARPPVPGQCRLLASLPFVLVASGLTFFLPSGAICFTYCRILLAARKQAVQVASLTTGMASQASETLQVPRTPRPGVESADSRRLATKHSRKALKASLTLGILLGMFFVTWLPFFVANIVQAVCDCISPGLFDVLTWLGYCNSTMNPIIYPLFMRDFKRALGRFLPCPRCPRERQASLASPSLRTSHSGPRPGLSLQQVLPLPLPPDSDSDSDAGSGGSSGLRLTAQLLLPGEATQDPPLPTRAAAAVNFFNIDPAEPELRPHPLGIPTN

ETA(h) = target: T19, ETA(h) (Homo sapiens, UniProt P25101); experiment: biochemical; set-up: Eurofins SafetyScreen44 radioligand displacement, inhibition of control specific binding; settings: read-out: % Inhibition of Control Specific Binding, Mean
T19 construct: gene EDNRA
T19 sequence (P25101 whole entry): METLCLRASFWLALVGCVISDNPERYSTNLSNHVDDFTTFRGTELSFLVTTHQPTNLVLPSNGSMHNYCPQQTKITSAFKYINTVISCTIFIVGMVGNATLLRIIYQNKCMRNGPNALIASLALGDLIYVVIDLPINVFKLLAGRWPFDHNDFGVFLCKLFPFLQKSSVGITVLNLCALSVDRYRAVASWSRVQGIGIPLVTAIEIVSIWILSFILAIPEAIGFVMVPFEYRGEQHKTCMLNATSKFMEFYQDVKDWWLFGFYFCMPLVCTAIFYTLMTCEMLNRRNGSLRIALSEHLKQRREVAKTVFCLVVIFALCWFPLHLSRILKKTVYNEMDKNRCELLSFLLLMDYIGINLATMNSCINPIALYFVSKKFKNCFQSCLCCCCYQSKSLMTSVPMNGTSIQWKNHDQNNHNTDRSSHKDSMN

M1(h) = target: T20, M1(h) (Homo sapiens, UniProt P11229); experiment: biochemical; set-up: Eurofins SafetyScreen44 radioligand displacement, inhibition of control specific binding; settings: read-out: % Inhibition of Control Specific Binding, Mean
T20 construct: gene CHRM1
T20 sequence (P11229 whole entry): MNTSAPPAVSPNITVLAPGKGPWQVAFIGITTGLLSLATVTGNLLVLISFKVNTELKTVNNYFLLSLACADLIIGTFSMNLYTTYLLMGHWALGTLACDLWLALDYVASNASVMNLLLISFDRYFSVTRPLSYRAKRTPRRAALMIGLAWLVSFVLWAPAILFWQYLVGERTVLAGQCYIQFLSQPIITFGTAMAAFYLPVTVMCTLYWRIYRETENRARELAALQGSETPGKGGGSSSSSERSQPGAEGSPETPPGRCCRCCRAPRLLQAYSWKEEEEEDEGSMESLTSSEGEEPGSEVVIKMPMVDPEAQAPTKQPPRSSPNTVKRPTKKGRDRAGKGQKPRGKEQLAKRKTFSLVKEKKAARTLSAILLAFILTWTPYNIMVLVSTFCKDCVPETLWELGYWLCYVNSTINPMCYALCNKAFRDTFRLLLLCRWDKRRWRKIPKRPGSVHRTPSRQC

H2(h) = target: T21, H2(h) (Homo sapiens, UniProt P25021); experiment: biochemical; set-up: Eurofins SafetyScreen44 radioligand displacement, inhibition of control specific binding; settings: read-out: % Inhibition of Control Specific Binding, Mean
T21 construct: gene HRH2

adrenergic receptor α1A = target: T22, adrenergic receptor α1A (Homo sapiens, UniProt P35348); experiment: SafetyScreen44 panel (Eurofins), single concentration […]; settings: read-out: % inhibition at 10 μM
T22 construct: gene ADRA1A
T22 sequence (P35348 1-466): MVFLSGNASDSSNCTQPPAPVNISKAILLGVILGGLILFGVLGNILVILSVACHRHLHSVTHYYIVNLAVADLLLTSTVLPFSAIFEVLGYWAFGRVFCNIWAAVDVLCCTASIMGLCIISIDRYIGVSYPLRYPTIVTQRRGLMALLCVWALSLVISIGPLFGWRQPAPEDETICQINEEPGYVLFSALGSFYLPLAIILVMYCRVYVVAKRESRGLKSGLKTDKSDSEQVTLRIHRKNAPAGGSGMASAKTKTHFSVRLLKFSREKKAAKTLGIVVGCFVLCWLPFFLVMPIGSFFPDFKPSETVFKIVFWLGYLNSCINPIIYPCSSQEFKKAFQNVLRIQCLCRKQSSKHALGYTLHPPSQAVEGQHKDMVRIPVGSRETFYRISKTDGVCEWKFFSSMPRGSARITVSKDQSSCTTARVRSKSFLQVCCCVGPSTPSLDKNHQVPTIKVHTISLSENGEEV

COX1(h) = target: T23, COX1(h) (Homo sapiens, UniProt P23219); experiment: biochemical; set-up: Eurofins SafetyScreen44 enzyme assays, inhibition of control specific activity; settings: read-out: % Inhibition of Control Values, Mean
T23 construct: gene PTGS1

For `COCCN(CC1CCCN(Cc2ccccc2)C1)S(=O)(=O)c1ccc2ccccc2c1` (racemic) [compound 4, (±)N-((1-benzylpiperidin-3-yl)methyl)-N-(2-methoxyethyl)naphthalene-2-sulfonamide], the inhibition at 10 µM (N muscle-type (h)) was 23%, the inhibition at 10 µM (D5(h)) was 24.2% and the inhibition at 10 µM [1] was 84.8%. The inhibition at 10 µM (D2L(h)) was 26.6%, the inhibition at 10 µM (M3(h)) was 35.2% and the inhibition at 10 µM (PDE4D2 (h)) was -3.7%. It also gave an inhibition at 10 µM (COX2(h)) of 2.2%, an inhibition at 10 µM (N neuronal α4β2 (h)) of -17.7% and an inhibition at 10 µM (A2A(h)) of 20.5%. For the same molecule, the inhibition at 10 µM (CB2(h)) was 17.6%, the inhibition at 10 µM (acetylcholinesterase (h)) was 12.3% and the inhibition at 10 µM (5-HT2A(h)) was 93%. For the same molecule, the inhibition at 10 µM (GR (h)) was 4.7%, the inhibition at 10 µM (M2 (h)) was 85.7% and the inhibition at 10 µM (adrenergic receptor α2A) was 60.9%. For the same molecule, the inhibition at 10 µM (μ (MOP) (h)) was 82.7%, the inhibition at 10 µM (5-HT1A(h)) was 96.2% and the inhibition at 10 µM (5-HT6 (h)) was 87.1%. It also gave an inhibition at 10 µM (ETA(h)) of -3.9%, an inhibition at 10 µM (M1(h)) of 53.1% and an inhibition at 10 µM (H2(h)) of 27%. The inhibition at 10 µM (adrenergic receptor α1A) was 71.7% and the inhibition at 10 µM (COX1(h)) was 0.4%.
